What was measured:
Substance-P receptor = Substance-P receptor (Homo sapiens, UniProt P25103); assay type: cell membranes, Membrane; settings: cho; note: in other assays of this panel Not Active means under 50% inhibition at 10 µM
[1] = molecular target: T1, C-C chemokine receptor type 4 (Homo sapiens, UniProt P51679); assay type: cell membranes, Membrane; settings: chem-1; note: in other assays of this panel Not Active means under 50% inhibition at 10 µM
T1 sequence (P51679 whole entry): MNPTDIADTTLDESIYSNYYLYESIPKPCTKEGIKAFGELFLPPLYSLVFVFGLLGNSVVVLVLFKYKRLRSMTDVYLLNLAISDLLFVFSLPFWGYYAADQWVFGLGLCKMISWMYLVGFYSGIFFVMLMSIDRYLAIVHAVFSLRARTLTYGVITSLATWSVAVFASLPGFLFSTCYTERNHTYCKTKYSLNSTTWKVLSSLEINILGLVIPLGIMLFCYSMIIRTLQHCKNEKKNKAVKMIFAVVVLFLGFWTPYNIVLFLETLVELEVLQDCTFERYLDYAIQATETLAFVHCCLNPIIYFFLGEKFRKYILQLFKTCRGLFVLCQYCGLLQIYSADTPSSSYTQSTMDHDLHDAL

[2] = DRUGMATRIX: Glutamate, NMDA, Phencyclidine radioligand binding (ligand: [3H] TCP); assay type: cell membranes, Rattus norvegicus, Wistar, Cerebral cortex, Membrane; settings: Not Active = under 50% inhibition at 10 µM
[3] = DRUGMATRIX: Calcium Channel Type L, Dihydropyridine radioligand binding (ligand: [3H] Nitrendipine); assay type: cell membranes, Rattus norvegicus, Wistar, Cerebral cortex, Membrane; settings: Not Active = under 50% inhibition at 10 µM
Cytochrome P450 2D6 = Cytochrome P450 2D6 (Homo sapiens, UniProt P10635); settings: bti-tn-5b1-4; note: in other assays of this panel Not Active means under 50% inhibition at 10 µM
[4] = DRUGMATRIX: Leukotriene, BLT (LTB4) radioligand binding (ligand: [3H]LTB4); assay type: cell membranes, Membrane; settings: u-937; Not Active = under 50% inhibition at 10 µM
Melanocortin receptor 3 = Melanocortin receptor 3 (Homo sapiens, UniProt P41968); assay type: cell membranes, Membrane; settings: hek293; note: in other assays of this panel Not Active means under 50% inhibition at 10 µM
[5] = molecular target: T2, Cysteinyl leukotriene receptor 1 (Homo sapiens, UniProt Q9Y271); assay type: cell membranes, CHO-K1, Membrane; settings: cho-k1; note: in other assays of this panel Not Active means under 50% inhibition at 10 µM
T2 sequence (Q9Y271 whole entry): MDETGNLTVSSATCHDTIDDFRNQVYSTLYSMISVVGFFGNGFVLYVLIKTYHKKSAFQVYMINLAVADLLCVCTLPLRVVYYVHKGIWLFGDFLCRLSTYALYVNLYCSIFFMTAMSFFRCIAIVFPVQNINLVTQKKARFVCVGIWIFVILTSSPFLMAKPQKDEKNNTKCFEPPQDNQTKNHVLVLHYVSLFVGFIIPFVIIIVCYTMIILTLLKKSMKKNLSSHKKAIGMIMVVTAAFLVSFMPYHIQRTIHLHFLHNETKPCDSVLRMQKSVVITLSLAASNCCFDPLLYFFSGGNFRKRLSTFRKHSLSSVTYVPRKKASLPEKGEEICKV

[6] = DRUGMATRIX: Glutamate, Kainate radioligand binding (ligand: [3H] Kainic acid); assay type: cell membranes, Rattus norvegicus, Wistar, Brain, Membrane; settings: Not Active = under 50% inhibition at 10 µM
[7] = molecular target: T3, Neuropeptide Y receptor type 2 (Homo sapiens, UniProt P49146); assay type: cell membranes, Membrane; settings: kan-ts; note: in other assays of this panel Not Active means under 50% inhibition at 10 µM
T3 sequence (P49146 whole entry): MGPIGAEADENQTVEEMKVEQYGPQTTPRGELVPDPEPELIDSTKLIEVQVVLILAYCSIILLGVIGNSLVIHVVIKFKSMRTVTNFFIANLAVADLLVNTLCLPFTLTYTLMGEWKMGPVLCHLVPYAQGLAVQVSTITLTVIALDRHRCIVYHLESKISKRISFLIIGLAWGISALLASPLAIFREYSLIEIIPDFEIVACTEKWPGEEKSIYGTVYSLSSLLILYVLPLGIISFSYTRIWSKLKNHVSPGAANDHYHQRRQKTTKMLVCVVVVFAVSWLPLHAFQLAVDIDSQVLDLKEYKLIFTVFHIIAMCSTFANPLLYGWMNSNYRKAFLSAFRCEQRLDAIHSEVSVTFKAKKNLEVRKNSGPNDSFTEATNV

Estrogen receptor beta = Estrogen receptor beta (Homo sapiens, UniProt Q92731); settings: sf9; note: in other assays of this panel Not Active means under 50% inhibition at 10 µM
Chain of Estrogen receptor beta (Q92731 whole entry): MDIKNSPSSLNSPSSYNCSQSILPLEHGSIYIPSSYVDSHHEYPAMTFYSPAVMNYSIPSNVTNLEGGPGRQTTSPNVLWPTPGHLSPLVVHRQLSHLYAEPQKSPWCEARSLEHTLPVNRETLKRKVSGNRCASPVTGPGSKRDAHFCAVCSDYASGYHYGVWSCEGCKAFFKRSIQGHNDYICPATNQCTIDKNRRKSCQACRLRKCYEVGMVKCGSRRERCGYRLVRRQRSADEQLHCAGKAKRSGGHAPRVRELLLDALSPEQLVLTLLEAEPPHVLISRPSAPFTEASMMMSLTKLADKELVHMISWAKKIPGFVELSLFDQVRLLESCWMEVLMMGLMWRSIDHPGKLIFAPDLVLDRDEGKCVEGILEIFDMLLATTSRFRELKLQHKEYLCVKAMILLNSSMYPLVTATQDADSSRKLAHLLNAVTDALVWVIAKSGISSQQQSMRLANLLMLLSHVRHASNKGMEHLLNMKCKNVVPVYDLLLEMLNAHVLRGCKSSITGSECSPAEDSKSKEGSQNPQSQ

Chain of Cytochrome P450 2D6 (P10635 whole entry): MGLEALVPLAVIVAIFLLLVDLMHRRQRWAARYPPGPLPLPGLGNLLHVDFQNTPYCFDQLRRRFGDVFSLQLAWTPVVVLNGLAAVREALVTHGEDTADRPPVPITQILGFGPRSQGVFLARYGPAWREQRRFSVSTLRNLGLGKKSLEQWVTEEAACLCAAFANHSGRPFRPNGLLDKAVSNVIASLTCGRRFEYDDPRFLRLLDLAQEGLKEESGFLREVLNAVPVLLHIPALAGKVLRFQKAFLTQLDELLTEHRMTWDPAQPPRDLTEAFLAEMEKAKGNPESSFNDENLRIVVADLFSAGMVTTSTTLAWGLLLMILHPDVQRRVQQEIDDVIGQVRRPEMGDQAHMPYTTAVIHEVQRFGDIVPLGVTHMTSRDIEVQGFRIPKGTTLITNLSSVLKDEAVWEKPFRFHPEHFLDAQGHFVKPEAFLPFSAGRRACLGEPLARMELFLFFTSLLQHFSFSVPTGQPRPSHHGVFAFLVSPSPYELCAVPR
Chain of Substance-P receptor (P25103 whole entry): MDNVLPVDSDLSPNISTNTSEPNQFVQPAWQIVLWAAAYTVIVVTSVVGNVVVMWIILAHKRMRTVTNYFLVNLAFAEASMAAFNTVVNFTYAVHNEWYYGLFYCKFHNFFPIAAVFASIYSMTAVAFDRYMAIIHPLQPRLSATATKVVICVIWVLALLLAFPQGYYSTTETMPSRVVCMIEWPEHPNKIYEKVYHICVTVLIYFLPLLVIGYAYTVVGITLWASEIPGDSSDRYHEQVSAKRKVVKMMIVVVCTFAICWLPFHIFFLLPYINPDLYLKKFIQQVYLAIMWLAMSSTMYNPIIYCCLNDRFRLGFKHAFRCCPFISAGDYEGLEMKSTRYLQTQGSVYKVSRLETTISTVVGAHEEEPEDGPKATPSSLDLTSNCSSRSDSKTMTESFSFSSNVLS
Chain of Melanocortin receptor 3 (P41968 whole entry): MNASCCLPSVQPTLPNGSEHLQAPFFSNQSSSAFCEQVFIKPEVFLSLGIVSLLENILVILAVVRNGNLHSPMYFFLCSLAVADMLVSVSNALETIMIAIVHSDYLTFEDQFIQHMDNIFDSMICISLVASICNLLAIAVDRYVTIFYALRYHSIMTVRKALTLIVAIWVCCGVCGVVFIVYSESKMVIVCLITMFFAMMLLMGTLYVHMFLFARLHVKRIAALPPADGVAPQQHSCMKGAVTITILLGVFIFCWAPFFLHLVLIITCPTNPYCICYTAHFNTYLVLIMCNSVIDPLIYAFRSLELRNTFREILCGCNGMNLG

SMILES	IC50 (Substance-P receptor)	IC50 [1]	IC50 [2]	Ki [2]	IC50 [3]	Ki [3]	IC50 (Cytochrome P450 2D6)	Ki (Cytochrome P450 2D6)	IC50 [4]	Ki [4]	IC50 (Melanocortin receptor 3)	IC50 [5]	IC50 [6]	Ki [6]	IC50 [7]	IC50 (Estrogen receptor beta)	IC50 ([3]; read-out: IC50)	Ki ([3]; read-out: Ki)
Cc1cc(C)nc(NS(=O)(=O)c2ccc(N)cc2)n1 [SULFAMETHAZINE]	Not Active	Not Active	Not Active	Not Active	Not Active	Not Active	Not Active	Not Active	Not Active	Not Active	Not Active	Not Active	Not Active	Not Active	Not Active	–	–	–
CC(C)NCC(O)COc1cccc2ccccc12 (centres undefined) [PROPRANOLOL]	Not Active	Not Active	–	–	–	–	–	–	–	–	Not Active	Not Active	–	–	Not Active	Not Active	–	–
COCCOC(=O)C1=C(C)NC(C)=C(C(=O)OC(C)C)C1c1cccc([N+](=O)[O-])c1 (centres undefined) [NIMODIPINE]	Not Active	Not Active	Not Active	Not Active	–	–	–	–	Not Active	Not Active	Not Active	Not Active	Not Active	Not Active	Not Active	–	0.242 nM	0.156 nM
CC(=O)N1CCN(c2ccc(OCC3COC(Cn4ccnc4)(c4ccc(Cl)cc4Cl)O3)cc2)CC1 (centres undefined) [KETOCONAZOLE]	Not Active	Not Active	Not Active	Not Active	Not Active	Not Active	–	–	Not Active	Not Active	Not Active	Not Active	Not Active	Not Active	Not Active	Not Active	–	–
C[C@]1(Cn2ccnn2)[C@H](C(=O)O)N2C(=O)C[C@H]2S1(=O)=O [TAZOBACTAM]	Not Active	Not Active	Not Active	Not Active	Not Active	Not Active	Not Active	Not Active	Not Active	Not Active	Not Active	Not Active	Not Active	Not Active	Not Active	–	–	–
[Cl-].[Cl-].[Zn+2] [ZINC CHLORIDE]	Not Active	Not Active	Not Active	Not Active	Not Active	Not Active	Not Active	Not Active	Not Active	Not Active	Not Active	Not Active	Not Active	Not Active	Not Active	–	–	–
C=CCN1CC[C@]23c4c5ccc(O)c4O[C@H]2C(=O)CC[C@@]3(O)[C@H]1C5 [NALOXONE]	Not Active	Not Active	–	–	–	–	–	–	–	–	Not Active	Not Active	–	–	Not Active	Not Active	–	–
Clc1ccc2c(c1)C(N1CCNCC1)=Nc1ccccc1O2 [AMOXAPINE]	Not Active	Not Active	–	–	–	–	–	–	–	–	Not Active	Not Active	–	–	Not Active	Not Active	–	–
CC(=O)CC(c1ccccc1)c1c(O)c2ccccc2oc1=O (centres undefined) [WARFARIN]	Not Active	Not Active	Not Active	Not Active	Not Active	Not Active	Not Active	Not Active	Not Active	Not Active	Not Active	Not Active	Not Active	Not Active	Not Active	–	–	–
CC(C)c1nc(CN(C)C(=O)N[C@H](C(=O)N[C@@H](Cc2ccccc2)C[C@H](O)[C@H](Cc2ccccc2)NC(=O)OCc2cncs2)C(C)C)cs1 [RITONAVIR]	Not Active	Not Active	Not Active	Not Active	Not Active	Not Active	–	–	Not Active	Not Active	Not Active	Not Active	Not Active	Not Active	Not Active	Not Active	–	–
